Results: patent publication US7163940B2, “Pyrazolopyridinyl pyrimidine therapeutic compounds” (SmithKline Beecham Corporation, priority 2000, dated 2007)

System: HSV-1
Experiment: HSV-1 replication in infected Vero 76 cells, viral DNA hybridization capture assay
Format: cell-based
Settings: Human alphaherpesvirus 1, Vero 76, HSV-1, Vero 76 cells, MOI=0.001, 40–48 hours incubation
Method: Vero 76 cells were maintained in MEM with Earle's salts, L-glutamine, 8% FBS (Hyclone, A-1111-L) and 100 units/mL Penicillin-100 μg/mL Streptomycin. For assay conditions, FBS was reduced to 2%. Cells are seeded into 96-well tissue culture plates at a density of 5×10^4 cells/well after being incubated for 45 min at 37° C. in the presence of HSV-1 or HSV-2 (MOI=0.001). Test compounds are added to the wells and the plates are incubated at 37° C. for 40–48 hours. Cell lysates are prepared as follows: media was removed and replaced with 150 μL/well 0.2 N NaOH with 1% Igepal CA 630 or NP-40. Plates were incubated up to 14 days at room temperature in a humidified chamber to prevent evaporation. • (b) Preparation of Detection DNA.
For the detection probe, a gel-purified, digoxigenin-labeled, […] PCR fragment of the HSV UL-15 sequence was utilized. PCR conditions included 0.5 μM primers, 180 μM dTP, 20 μM dUTP-digoxigenin (Boehringer Mannheim 1558706), 200 μM each of dATP, dCTP, and dGTP, 1×PCR Buffer II (Perkin Elmer), 2.5 mM MgCl2, 0.025 units/μL of AmpliTaq Gold polymerase (Perkin Elmer), and 5 ng of gel-purified HSV DNA per 100 μL. Extension conditions were 10 min at 95° C., followed by 30 cycles of 95° C. for 1 min, 55° C. for 30 sec, and 72° C. for 2 min. The amplification was completed with a 10-min incubation at 72° C. Primers were selected to amplify a 728 bp probe spanning a section of the HSV1 UL15 open reading frame (nucleotides 249–977). Single-stranded transcripts were purified with Promega M13 Wizard kits. The final product was mixed 1:1 with a mixture of 6 M GuSCN, 100 mM EDTA and 200 μg/mL herring sperm DNA and stored at 4° C. • (c) Preparation of Capture Plates.
The capture DNA plasmid (HSV UL13 region in pUC) was linearized by cutting with Xba I, denatured for 15 min at 95° C. and diluted immediately into Reacti-Bind DNA Coating Solution (Pierce, 17250, diluted 1:1 with TE buffer, pH 8) at 1 ng/μL 75 μL/well were added to Corning (#3922 or 9690) white 96-well plates and incubated at room temperature for at least 4 hrs before washing twice with 300 μL/well 0.2×SSC/0.05% Tween-20 (SSC/T buffer). The plates were then incubated overnight at room temperature with 150 μL/well 0.2 N NaOH, 1% IGEPAL and 10 μg/mL herring sperm DNA. • (d) Hybridization.
Twenty-seven (27) μL of cell lysate was combined with 45 μL of hybridization solution (final concentration: 3M GuSCN, 50 mM EDTA, 100 μg/ml salmon sperm DNA, 5× Denhardt's solution, 0.25×APE, and 5 ng of the digoxigenin-labeled detection probe). APE is 1.5 M NH4-acetate, 0.15 M ammonium phosphate, and 5 mM EDTA adjusted to pH 6.0. Mineral oil (50 μL) was added to prevent evaporation. The hybridization plates were incubated at 95° C. for 10 minutes to denature the DNA, then incubated at 42° C. overnight. The wells were washed 6× with 300 μL/well SSC/T buffer then incubated with 75 μL/well anti-digoxigenin-HRP-conjugated antibody (Boehringer Mannheim 1207733, 1:5000 in TE) for 30 min at room temperature. The wells were washed 6× with 300 μL/well with PBS/0.05% Tween-20 before 75 μL/well SuperSignal LBA substrate (Pierce) was added. The plates were incubated at room temperature for 30 minutes and chemiluminescence was measured in a Wallac Victor reader. • e) Results.
The following results were obtained for HSV-1.

Row | Structure (SMILES) | IC50
1 | Fc1ccc(-c2nn3c(NC4CCCC4)cccc3c2-c2ccncc2)cc1 [Example 28, N-cyclopentyl-2-(4-fluorophenyl)-3-(4-pyridinyl)pyrazolo[1,5-α]pyridin-7-amine] | 2000 nM
2 | Fc1ccc(-c2nn3c(NC4CCCC4)cccc3c2-c2ccnc(NC3CCCC3)c2)cc1 [Example 29, N-Cyclopentyl-3-[2-(cyclopentylamino)-4-pyridinyl]-2-(4-fluorophenyl)pyrazolo[1,5-α]pyridin-7-amine] | 300 nM
3 | Fc1ccc(-c2nn3c(N4CCCC4)cccc3c2-c2ccnc(NC3CCCC3)n2)cc1 [Example 31, N-Cyclopentyl-4-[2-(4-fluorophenyl)-7-(1-pyrrolidinyl)pyrazolo[1,5-α]pyridin-3-yl]-2-pyrimidinamine] | 1000 nM
4 | CCCCNc1nccc(-c2c(-c3ccc(F)cc3)nn3c(NC4CC4)cccc23)n1 [Example 33, 3-[2-(Butylamino)-4-pyrimidinyl]-N-cyclopropyl-2-(4-fluorophenyl)pyrazolo[1,5-α]pyridin-7-amine] | 200 nM
5 | CCCCNc1nccc(-c2c(-c3ccc(F)cc3)nn3c(N(C)C)cccc23)n1 [Example 34, 3-[2-(Butylamino)-4-pyrimidinyl]-2-(4-fluorophenyl)-N,N-dimethylpyrazolo[1,5-α]pyridin-7-amine] | 300 nM
6 | CCCCNc1nccc(-c2c(-c3ccc(F)cc3)nn3c(N4CCOCC4)cccc23)n1 [Example 36, N-Butyl-4-[2-(4-fluorophenyl)-7-(4-morpholinyl)pyrazolo[1,5-α]pyridin-3-yl]-2-pyrimidinamine] | 800 nM
7 | CCCCNc1cccc2c(-c3ccnc(NCCCO)n3)c(-c3ccc(F)cc3)nn12 [Example 38, 3-({4-[7-(Butylamino)-2-(4-fluorophenyl)pyrazolo[1,5-α]pyridin-3-yl]-2-pyrimidinyl}amino)-1-propanol] | 5000 nM
8 | CCCCNc1cccc2c(-c3ccnc(N4CCOCC4)n3)c(-c3ccc(F)cc3)nn12 [Example 40, N-Butyl-2-(4-fluorophenyl)-3-[2-(4-morpholinyl)-4-pyrimidinyl]pyrazolo[1,5-α]pyridin-7-amine] | 15000 nM
9 | CCCCNc1cccc2c(-c3ccnc(N4CCN(CCO)CC4)n3)c(-c3ccc(F)cc3)nn12 [Example 41, 2-(4-{4-[7-(Butylamino)-2-(4-fluorophenyl)pyrazolo[1,5-α]pyridin-3-yl]-2-pyrimidinyl}-1-piperazinyl)ethanol] | 6000 nM
10 | CCCCNc1cccc2c(-c3ccnc(N4CCN(CCOC)CC4)n3)c(-c3ccc(F)cc3)nn12 [Example 42, N-Butyl-2-(4-fluorophenyl)-3-{2-[4-(2-methoxyethyl)-1-piperazinyl]-4-pyrimidinyl}pyrazolo[1,5-α]pyridin-7-amine] | 10000 nM
11 | CCCCNc1cccc2c(-c3ccnc(NCc4ccccn4)n3)c(-c3ccc(F)cc3)nn12 [Example 43, N-Butyl-2-(4-fluorophenyl)-3-{2-[(2-pyridinylmethyl)amino]-4-pyrimidinyl}pyrazolo[1,5-α]pyridin-7-amine] | 3000 nM
12 | CCCCNc1cccc2c(-c3ccnc(NCCN4CCOCC4)n3)c(-c3ccc(F)cc3)nn12 [Example 45, N-Butyl-2-(4-fluorophenyl)-3-(2-{[2-(4-morpholinyl)ethyl]amino}-4-pyrimidinyl)pyrazolo[1,5-α]pyridin-7-amine] | 5000 nM
13 | CCCCNc1cccc2c(-c3ccnc(OCCN4CCOCC4)n3)c(-c3ccc(F)cc3)nn12 [Example 46, N-Butyl-2-(4-fluorophenyl)-3-{2-[2-(4-morpholinyl)ethoxy]-4-pyrimidinyl}pyrazolo[1,5-α]pyridin-7-amine] | 7000 nM
14 | CCCCNc1nccc(-c2c(-c3ccc(F)cc3)nn3c(NCCN4CCOCC4)cccc23)n1 [Example 47, 3-[2-(Butylamino)-4-pyrimidinyl]-2-(4-fluorophenyl)-N-[2-(4-morpholinyl)ethyl]pyrazolo[1,5-α]pyridin-7-amine] | 400 nM
15 | CCCCNc1nccc(-c2c(-c3ccc(F)cc3)nn3c(NCCOC)cccc23)n1 [Example 48, 3-[2-(Butylamino)-4-pyrimidinyl]-2-(4-fluorophenyl)-N-(2-methoxyethyl)pyrazolo[1,5-α]pyridin-7-amine] | 300 nM
16 | CN(C)Cc1cc(-c2c(-c3ccc(F)cc3)nn3c(NC4CCCC4)cccc23)nc(NC2CCCC2)n1 [Example 51, N-Cyclopentyl-3-{2-(cyclopentylamino)-6-[(dimethylamino)methyl]-4-pyrimidinyl}-2-(4-fluorophenyl)pyrazolo[1,5-α]pyridin-7-amine] | 5000 nM
17 | C=CCNc1cccc2c(-c3ccnc(NCCCC)n3)c(-c3ccc(F)cc3)nn12 [Example 54, N-Allyl-3-[2-(butylamino)-4-pyrimidinyl]-2-(4-fluorophenyl)pyrazolo[1,5-α]pyridin-7-amine] | 500 nM

More lines, in order of falling IC50, values ahead:

Row | IC50 | Structure (SMILES)
18 | 15000 nM | CCCCNc1cccc2c(-c3ccnc([S+](C)[O-])n3)c(-c3ccc(F)cc3)nn12 (stereo not drawn) [Example 37, N-Butyl-2-(4-fluorophenyl)-3-[2-(methylsulfinyl)-4-pyrimidinyl]-pyrazolo[1,5-α]pyridin-7-amine]
19 | 5000 nM | NNc1cc(-c2c(-c3ccc(F)cc3)nn3c(NC4CCCC4)cccc23)ccn1 [Example 30, N-Cyclopentyl-2-(4-fluorophenyl)-3-(2-hydrazino-4-pyridinyl)pyrazolo[1,5-α]pyridin-7-amine]
20 | 5000 nM | CN(C)c1nccc(-c2c(-c3ccc(F)cc3)nn3c(N4CCCC4)cccc23)n1 [Example 32, 4-[2-(4-Fluorophenyl)-7-(1-pyrrolidinyl)pyrazolo[1,5-α]pyridin-3-yl]-N,N-dimethyl-2-pyrimidinamine]
21 | 4000 nM | CCCCNc1cccc2c(-c3ccnc(NCCCn4ccnc4)n3)c(-c3ccc(F)cc3)nn12 [Example 44, N-Butyl-2-(4-fluorophenyl)-3-(2-{[3-(1H-imidazol-1-yl)propyl]amino}-4-pyrimidinyl)pyrazolo[1,5-α]pyridin-7-amine]
22 | 1300 nM | O=C(O)c1cc(-c2c(-c3ccc(F)cc3)nn3c(Cl)cccc23)nc(NC2CCCC2)n1 [Example 27, 6-[7-Chloro-2-(4-fluorophenyl)pyrazolo[1,5-α]pyridin-3-yl]-2-(cyclopentylamino)-4-pyrimidinecarboxylic acid]
23 | 1200 nM | CCCCNc1nccc(-c2c(-c3ccc(F)cc3)nn3c(NC)cccc23)n1 [Example 49, 3-[2-(Butylamino)-4-pyrimidinyl]-2-(4-fluorophenyl)-N-methylpyrazolo[1,5-α]pyridin-7-amine]
24 | 1000 nM | C=CCNc1nccc(-c2c(-c3ccc(F)cc3)nn3c(NCCCC)cccc23)n1 [Example 39, 3-[2-(Allylamino)-4-pyrimidinyl]-N-butyl-2-(4-fluorophenyl)pyrazolo-[1,5-α]pyridin-7-amine]
25 | 1000 nM | Cc1cnc(NC2CCCC2)nc1-c1c(-c2ccc(F)cc2)nn2c(NC3CCCC3)cccc12 [Example 53, N-Cyclopentyl-3-[2-(cyclopentylamino)-5-methyl-4-pyrimidinyl]-2-(4-fluorophenyl)pyrazolo[1,5-α]pyridin-7-amine]
26 | 900 nM | CCCCNc1nccc(-c2c(-c3ccc(F)cc3)nn3c(N4CCN(C)CC4)cccc23)n1 [Example 35, N-Butyl-4-[2-(4-fluorophenyl)-7-(4-methyl-1-piperazinyl)pyrazolo[1,5-α]pyridin-3-yl]-2-pyrimidinamine]
